From patent publication US9884063B2, “Amido-substituted azole compounds” (Bayer Pharma Aktiengesellschaft, priority 2014, dated 2018) come the findings set out here.

A word on the IC50: it is the concentration at which inhibition is half-maximal. A higher IC50 goes with weaker potency.

The target of the assay is T1, TNKS2 (Homo sapiens, UniProt Q9H2K2).
T1 sequence (Q9H2K2 1-1166): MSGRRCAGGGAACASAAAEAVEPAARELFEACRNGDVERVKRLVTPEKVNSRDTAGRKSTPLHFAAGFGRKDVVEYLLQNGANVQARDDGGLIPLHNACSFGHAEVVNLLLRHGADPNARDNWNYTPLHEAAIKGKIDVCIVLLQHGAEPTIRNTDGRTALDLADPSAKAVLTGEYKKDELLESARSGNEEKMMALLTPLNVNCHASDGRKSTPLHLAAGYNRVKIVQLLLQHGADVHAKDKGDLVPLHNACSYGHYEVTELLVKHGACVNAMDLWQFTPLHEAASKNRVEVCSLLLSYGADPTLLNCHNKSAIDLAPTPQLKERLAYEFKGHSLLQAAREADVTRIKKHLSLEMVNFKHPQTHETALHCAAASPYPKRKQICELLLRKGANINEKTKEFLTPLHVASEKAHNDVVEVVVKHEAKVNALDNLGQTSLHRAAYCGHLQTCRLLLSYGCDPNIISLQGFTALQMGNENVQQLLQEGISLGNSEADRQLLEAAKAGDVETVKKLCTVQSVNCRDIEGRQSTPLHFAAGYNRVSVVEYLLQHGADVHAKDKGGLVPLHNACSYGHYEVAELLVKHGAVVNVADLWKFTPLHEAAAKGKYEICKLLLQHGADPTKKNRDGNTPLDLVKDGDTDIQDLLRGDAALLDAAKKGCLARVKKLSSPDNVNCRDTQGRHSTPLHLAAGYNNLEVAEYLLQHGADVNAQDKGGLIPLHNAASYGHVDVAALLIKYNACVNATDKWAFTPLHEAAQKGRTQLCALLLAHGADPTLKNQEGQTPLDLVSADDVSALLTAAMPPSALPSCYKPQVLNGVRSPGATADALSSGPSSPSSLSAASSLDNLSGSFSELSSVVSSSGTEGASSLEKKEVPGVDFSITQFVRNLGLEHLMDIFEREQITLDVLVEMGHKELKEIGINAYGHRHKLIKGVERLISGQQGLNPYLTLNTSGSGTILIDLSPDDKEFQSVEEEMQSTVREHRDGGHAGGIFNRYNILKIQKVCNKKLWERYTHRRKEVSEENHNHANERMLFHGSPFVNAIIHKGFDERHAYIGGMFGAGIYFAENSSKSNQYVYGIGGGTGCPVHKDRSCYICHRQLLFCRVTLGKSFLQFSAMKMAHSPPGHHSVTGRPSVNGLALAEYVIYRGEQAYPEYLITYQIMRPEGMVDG
The assay can be described thus: TNKS2 Assay 1 (TNKS2 Histone Ribosylation Assay Kit, biotin-labeled NAD+). It counts as biochemical. Particulars: chemiluminescent readout, 384 well. The method, then: The potency of the compounds according to the invention was assessed applying an in vitro inhibition assay. The TNKS2 catalyzed NAD^+-dependent ribosylation of a suitable protein substrate was detected using a commercially available biotin/streptavidin binding based assay format [TNKS2 Histone Ribosylation Assay Kit (Biotin-labeled NAD+), Catalog #80572; BPS Bioscience, San Diego, USA]. Here, the incorporation of a biotin-labeled NAD+ during the TNKS2 catalyzed ribosylation reaction was detected with a streptavidin-HRP coupled chemi-luminescent readout. The intensity of the readout signal is proportional to the incorporated NAD^+. Inhibition of TNKS2 leads to a decreased incorporation of NAD^+ and consequently to a lower readout signal intensity. The concentration of a test compound which inhibits the enzyme activity by 50% (corresponds to half of the normed readout signal intensity) is reported as IC50.
The assay was conducted in a 384 well MTP format according to the manufacturer's protocol [bpsbioscience.com/poly-adp-ribose-polymerase/assay-kit/tnks2-histone-ribosylation-assay-kit-biotin-labeled-nad-80572 referencing: Brown, J. A., Marala, R. B. J. Pharmacol. Toxicol. Methods 2002 47:137-41]. and using a BMG Pherastar MTP reader [BMG-Labtech, Offenburg, Germany].

Consider `CNC(=O)c1nc[nH]c1C(=O)Nc1ccc(NC(=O)c2ccc(N3CCCC3)cc2F)cc1` [Example 3, N^5-(4-{[2-fluoro-4-(pyrrolidin-1-yl)benzoyl]amino}phenyl)-N^4-methyl-1H-imidazole-4,5-dicarboxamide], for which the IC50 (Table 2) was determined as 30 µM.
`O=C(Nc1ccc(NC(=O)c2[nH]cnc2C(=O)NCc2ccccc2)cc1)c1ccc(F)cc1Cl` [Example 18, N^4-benzyl-N^5-{4-[(2-chloro-4-fluorobenzoyl)amino]phenyl}-1H-imidazole-4,5-dicarboxamide]: the IC50 is 0.85 µM (Table 2) and 0.85 µM (first table).
Take `CNC(=O)c1nc[nH]c1C(=O)Nc1ccc(NC(=O)c2ccccc2Cl)cc1` [Example 27, N^5-{4-[(2-chlorobenzoyl)amino]phenyl}-N^4-methyl-1H-imidazole-4,5-dicarboxamide]: the IC50 (Table 2) was determined as 0.04 µM and 0.04 µM corresponded to half-maximal inhibition (first table) (IC50).
